Laboratory results from patent US5994336A, “Method of inhibiting proliferation of cells by administering an aminosterol compound” (priority 1995, dated 1999).
Entries after “also recorded” stand apart in the source; their conditions may differ.

Tests used:
[1] = Effect on growth and weight gain of C57B mice; assay type: in vivo, mouse
Method: Animals were dosed QTD (i.p.) starting on Day 1. […] Animals receiving 5 mg/kg QTD experienced about a 50% reduction in growth, compared to untreated controls, while animals receiving 1 mg/kg QTD were affected by about 10%. […] They appeared very much like hypophysectamized animals might appear.

[2] = test system: Xenopus tadpole, stage 59-60; test: Tadpole assay; assay type: in vivo, Xenopus laevis; conditions: 10 μg/ml; for pharmacological response in tadpole (words): stage 59-60
Description: For example, substances that destroy all of the animal's epithelium, both adult and embryonic, could be regarded as toxic.
The volume of liquid is sufficient for the animal to swim freely and drink from the solution. […] If the volume of liquid is not sufficient to permit oral intake, the effects that are observed would result from absorption through the surface epithelium.
In another embodiment of this assay, a solution of a compound in water can be injected directly into the abdomen of the animal using standard techniques.
After an amount of time, typically about 60 minutes, the occlusion of blood flow through capillaries in the tadpole's tail are observed under an inverted microscope at a magnification of roughly 100×.
In the assay, each of the steroids was dissolved in 100 ml of distilled water at a concentration of 10 μg/ml. Stage 59-60 Xenopus tadpoles were introduced and evaluated by light microscopy and gross observation 1 hour later.

[3] = Effect on arterial resistance in the rat after i.v. administration; assay type: in vivo
Method: A 200-g rat was catheterized in the right carotid artery, and the compound was introduced over a ten-second period to a total dosage of 5 mg/kg. Within 30 seconds, the mean arterial pressure had fallen from about 100 mm Hg to about 70 mm Hg, with a marked reduction in pulse pressure from about 40 mm to about 10 mm. […] If cardiac output was basically unaffected, reduction in blood pressure would have resulted principally from a reduction in system resistance.
At that time, 40 μg of noradrenaline was introduced.

rabbit NHE3 = target: T1, rabbit NHE3 (Oryctolagus cuniculus, UniProt P26432); assay type: cell-based; conditions: 10 μg/ml, acid preloaded; FIG. 10
T1 construct: BCECF internal pH recovery
T1 sequence (P26432 30-832): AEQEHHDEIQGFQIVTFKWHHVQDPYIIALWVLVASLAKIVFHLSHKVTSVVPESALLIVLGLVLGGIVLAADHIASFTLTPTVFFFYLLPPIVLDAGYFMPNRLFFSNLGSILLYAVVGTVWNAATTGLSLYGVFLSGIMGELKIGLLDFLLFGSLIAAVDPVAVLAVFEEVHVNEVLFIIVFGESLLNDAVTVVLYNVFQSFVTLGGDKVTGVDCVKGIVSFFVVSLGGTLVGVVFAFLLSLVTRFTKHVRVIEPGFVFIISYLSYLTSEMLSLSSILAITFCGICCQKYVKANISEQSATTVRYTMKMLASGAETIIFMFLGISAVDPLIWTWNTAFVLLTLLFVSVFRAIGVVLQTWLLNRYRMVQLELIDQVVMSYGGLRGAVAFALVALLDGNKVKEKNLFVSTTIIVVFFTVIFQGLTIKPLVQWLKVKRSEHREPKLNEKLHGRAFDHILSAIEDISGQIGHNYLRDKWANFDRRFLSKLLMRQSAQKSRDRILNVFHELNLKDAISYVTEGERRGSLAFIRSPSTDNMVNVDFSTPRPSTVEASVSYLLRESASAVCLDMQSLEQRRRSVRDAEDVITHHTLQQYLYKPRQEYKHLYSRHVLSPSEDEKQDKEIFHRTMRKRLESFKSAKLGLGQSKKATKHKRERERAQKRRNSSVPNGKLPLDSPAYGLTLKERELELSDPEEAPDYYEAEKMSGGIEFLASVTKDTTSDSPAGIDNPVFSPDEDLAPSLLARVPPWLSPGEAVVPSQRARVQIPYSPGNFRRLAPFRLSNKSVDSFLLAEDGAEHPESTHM

vitelline capillaries = test: Chick embryo vitelline capillary regression assay; assay type: in vivo
Method: Using the chick embryo vitelline capillaries assay, compounds were tested for their ability to induce capillary regression. Each compound was applied in 0.1 ml of 15% Ficol 400 and PBS onto the embryo, and vascular regression was assessed after 60 minutes.
The 3-day chick embryo consists of an embryonic disc from which numerous vessels emerge and return, forming a "FIG. 8"-shaped structure--the embryo in the center with vascular loops extending outward over both poles. […] Following a lag period of around 15 minutes, the constriction of continuity between capillary and secondary vessels, generally on the "venous" side, was observed. Continued pulsatile blood flow progressed, resulting in a "swelling" of the blind tube, followed by a pinching off of the remaining connection and formation of an enclosed vascular sac resembling a "blood island." This process progressed until only the largest vessels remained intact.

[4] = test system: PHA-stimulated human lymphocytes; test: Inhibition of mitogen (PHA)-stimulated growth of human T-cells; assay type: cell-based
Description: Results are tabulated below.

[5] = test system: human coronary artery smooth muscle; test: Proliferation of human coronary artery smooth muscle in vitro; assay type: cell-based
Description: Aminosterols of the invention may also have utility in inhibiting the growth factor mediated proliferation of smooth muscle within the artery. Following coronary angioplasty, reocclusion commonly occurs, secondary to reparative proliferation of the vascular smooth muscle within the wall of the surgically manipulated blood vessel. This process generally takes place over the course of 7-10 days. To evaluate whether an agent could prevent the growth factor mediated proliferation of smooth muscle within the artery, compound 1436 was evaluated in vitro for its effect on the proliferation of human coronary artery smooth muscle. Results for compound 1436 are shown in FIG. 13, and those for squalamine are shown in FIG. 14, with FIG. 15 being a composite logarithmic plot.

[6] = test system: heart of a juvenile Xenopus laevis frog; test: Persistence of beating of isolated frog heart (ischemia); conditions: 10 μg/ml, adrenaline 50 μg/ml, room temperature; about one hour without compound
Method: To determine if compound 1436 has such utility, the following experiment was performed. The heart of a juvenile Xenopus laevis frog was dissected from the living animal. The heart was placed into a Petri dish containing Krebs-Ringer buffer with adrenaline 50 μg/ml, and examined with the naked eye. At room temperature, the heart continued beating in a coordinated fashion (atrial beat followed by ventricular beat) for about one hour. In the presence of 10 μg/ml of compound 1436, spontaneous beating persisted up to 24 hours.

Murine B16 melanoma = test: Growth inhibition in vitro (Table 7); assay type: cell-based; conditions: 10 μg/ml
Description: (§1) As set forth in Table 7 below, all malignant tumors evaluated in tissue culture, endothelial cells and vascular smooth muscle cells were sensitive to inhibition. Thus, compound 1436 has application in the control of growth factor dependent proliferation of many types of tissue.

[7] = test system: human umbilical venous endothelial cells; test: Growth inhibition in vitro (Table 7); assay type: cell-based; conditions: 10 μg/ml
Description: as §1

[8] = test system: bovine pulmonary endothelial cells; test: Growth inhibition in vitro (Table 7); assay type: cell-based; conditions: 10 μg/ml
Description: as §1

Human melanoma WM 1617 = test: Growth inhibition in vitro (Table 7); assay type: cell-based; conditions: 10 μg/ml
Description: as §1

[9] = test system: Human colon carcinoma SW948; test: Growth inhibition in vitro (Table 7); assay type: cell-based; conditions: 10 μg/ml
Description: as §1

[10] = test system: Human coronary artery smooth muscle cells; test: Growth inhibition in vitro (Table 7); assay type: cell-based; conditions: 10 μg/ml
Description: as §1

Murine L1210 leukemia = test: Growth inhibition in vitro (Table 7); assay type: cell-based; conditions: 10 μg/ml
Description: as §1

[11] = test system: Human colon carcinoma HT29; test: Growth inhibition in vitro (Table 7); assay type: cell-based; conditions: 10 μg/ml
Description: as §1

Lewis lung carcinoma = test: Growth inhibition in vitro (Table 7); assay type: cell-based; conditions: 10 μg/ml
Description: as §1

[12] = test system: Human microvascular endothelial cells; test: Growth inhibition in vitro (Table 7); assay type: cell-based; conditions: 10 μg/ml
Description: as §1

B16 melanoma [13] = test: Synergistic inhibition of tumor growth, B16 melanoma model; assay type: in vivo, mouse
Method: Based on the idea that tumor growth involves both the clonal expansion of a malignant cell along with the development of a supporting vascular supply, a combination of compound 1436 with squalamine was tested to determine whether it would achieve a synergistic effect on solid tumor growth. This concept was evaluated in the B16 melanoma model.
Animals were implanted with B16 melanoma followed by treatment with compound 1436 or 1256 administered in a combined schedule or separately. […] Thus, a combination of these two compounds achieves a therapeutic benefit in tumors dependent on neovascularization that may prevent metastatic spread.

[14] = test system: L1210 lymphoblastic leukemia; test: Survival of mice bearing L1210 leukemia
[15] = Effect on fasting blood glucose in mice; assay type: in vivo, mouse; conditions: i.v.
Method: To study the effect of steroid administrator or the NHE responsible for secretion of insulin, several of the aminosterols from shark liver were administered to fasting mice. Male CD-1 mice were assigned to one of four treatment groups. Whole blood glucose was tested using glucometer (Lifescan Glucometer II and One Touch test strips). Statistical analysis was via one-way analysis of variance (ANOVA) followed by subsequent Bonferonni's t-test.

[16] = test system: Human ovarian carcinoma SKOV3; test: Growth inhibition in vitro (Table 7); assay type: cell-based; conditions: 10 μg/ml
Method: as §1
Using the assay described above, the anticancer effects of compound 1437 against several cancer lines was assessed.

Chemical stability = assay type: physicochemical
human melanoma = test: Effect on growth of human melanoma (method of Baker et al.); assay type: cell-based; conditions: FIG. 17A
[17] = Hematological profile of L1210-inoculated mice
Description: C57B mice were inoculated with L1210 lymphoblastic leukemia cells at an inoculum that causes leukemia in 100% of animals.

B16 melanoma [18] = test: Suppression of growth of B16 melanoma in C57B mice; assay type: in vivo, mouse; conditions: subcutaneous; FIG. 6
Method: The growth of B16 melanoma in C57B mice is dependent upon neovascularization.
Using the growth of B16 melanoma cells in C57B mice, a recognized model for the evaluation of inhibitors of angiogenesis on the growth of cancers, the effects of subcutaneous, intraperitoneal and oral administration of squalamine were evaluated.

NHE = test: Comparison of compound 319 with squalamine
Description: Moreover, other aminosterols have shown anti-angiogenic activity. Compounds were subjected to a various assays, including the chick embryo capillary regression assay, the tadpole assay, the assay for inhibition of endothelial cord formation, and the assay for direct inhibition of NHE, as described above, to determine their utilities. As evident from the above data, correlation among the results from the chick, tadpole and in vitro inhibition of endothelial cell cord formation assays is excellent.
Through the application of these assays, compound 319 emerged as an attractive alternative to squalamine. […] Further properties of compound 319 are discussed below.

CC(C)[C@@H](CC[C@@H](C)[C@H]1CC[C@H]2[C@@H]3[C@H](O)C[C@H]4C[C@@H](NCCCNCCCCNCCCN)CC[C@]4(C)[C@H]3CC[C@]12C)OS(=O)(=O)O [Compound 1436]
reduction in growth ([1]; 5 mg/kg QTD i.p., compared to untreated controls): ~50% | reduction in growth ([1]; 10 mg/kg QTD i.p.): almost completely inhibited | apparent health of treated animals ([1]; i.p.): all were active, normally proportioned, not-cachectic, and in excellent apparent clinical health | tissues or functions not affected in tadpole [2]: No effects are observed on epithelial cell integrity, vascular flow, erythrocyte volume, tissue integrity, muscle fiber striation, or GI tract activity | pharmacological response in tadpole (words) [2]: Gradual reduction in overall activity. Heart beat remained strong, suggesting nervous system depression. Melanocytes over head and tail began to swell, first exhibiting visibly distinct nuclei, followed by rupture into fragments | pharmacological response in tadpole (words) ([2]; listed as compound 1436): common vascular occlusive effect; also recorded: dramatic disruption of melanocytes over its head, trunk, and tail, along with depression of its nervous system | reversibility ([3]; 40 μg noradrenaline at 30 minutes): readily reversible | pulse pressure after dose ([3]; 5 mg/kg i.v., within 30 seconds, from about 40 mm): about 10 mm | mean arterial pressure after dose ([3]; 5 mg/kg i.v., within 30 seconds, from about 100 mm Hg): about 70 mm Hg | persistence of pressure effect ([3]; followed for 30 minutes): without significant change | inhibition of rabbit NHE3 (rabbit NHE3): found to inhibit rabbit NHE3 | activity on vitelline capillaries (vitelline capillaries): causes vitelline capillary regression with about the same potency as squalamine | inhibition of blast transformation [4]: inhibited blast transformation most potently | suppression of growth in vitro ([5]; FIG. 15): suppress in vitro the growth of human coronary artery smooth muscle | viability at quiescent concentration ([5]; about 11 μg/ml): without loss of viability | persistence of spontaneous beating [6]: up to 24 hours | inhibition in vitro (Murine B16 melanoma): INHIBITED | inhibition in vitro [7]: INHIBITED | inhibition in vitro [8]: INHIBITED | inhibition in vitro (Human melanoma WM 1617): INHIBITED | inhibition in vitro [9]: INHIBITED | inhibition in vitro [10]: INHIBITED | inhibition in vitro (Murine L1210 leukemia): INHIBITED | inhibition in vitro [11]: INHIBITED | inhibition in vitro (Lewis lung carcinoma): INHIBITED | inhibition in vitro [12]: INHIBITED | effect compared with combination (B16 melanoma [13]; compound 1436 alone in a tolerable schedule): Neither administration of squalamine at 15 mg/kg/day nor compound 1436 alone in a tolerable schedule could achieve this effect | impact on tumor volume (B16 melanoma [13]; compound 1436 alone, 10 mg/kg/every 3 days, FIG. 12): no significant impact on tumor volume | survival ([14]; highest dose, 10 mg/kg every 3 days i.p., FIG. 11): significant prolongation of life | toxicity in leukemic mice ([14]; mouse, in vivo): without unfavorable toxicity | blood glucose effect [15]: caused hyperglycemia in mice | inhibition in vitro [16]: INHIBITED

CC(CCC(=O)C(C)(C)OS(=O)(=O)O)[C@H]1CCC2C3C(CC[C@@]21C)[C@@]1(C)CC[C@H](NCCCNCCCCN)C[C@@H]1C[C@H]3O (some centres unmarked) [FX1A]
stability in water (Chemical stability): undergo conversion to another molecule (FX 1B) rapidly in water

CC(C)CCC[C@@H](C)[C@H]1CC[C@H]2[C@@H]3CC[C@H]4C[C@@H](NCCCNCCCCNCCCN)CC[C@]4(C)[C@H]3CC[C@]12C [Compound 353]
time course of effect on growth of melanoma (human melanoma): most pronounced over 48 hours, with less of an effect noted within the first 12 hours of incubation | pharmacological response in tadpole (words) [2]: effects like those produced by compound 1436 | activity on vitelline capillaries (vitelline capillaries): no effect on the chick embryo capillary bed

N.N.[Cl][Pt][Cl] [Cisplatin]
hematological profile [17]: profound anemia by day 28

C[C@H](CCC(=O)O)[C@H]1CC[C@H]2[C@@H]3CC[C@H]4C[C@@H](NCCCNCCCCN)CC[C@]4(C)[C@H]3CC[C@]12C [Compound 319]
pharmacological response in tadpole (words) [2]: common vascular occlusive effect | activity on vitelline capillaries (vitelline capillaries): especially active | control of B16 melanoma (B16 melanoma [18]): control of B16 in C57B mice to an extent almost comparable to squalamine | potency as an NHE inhibitor compared with squalamine (NHE): superior to squalamine
